Consider 16 molecules from paper PMC6102691, “Identification of a novel ligand for the ATAD2 bromodomain with selectivity over BRD4 through a fragment growing approach” (Organic & Biomolecular Chemistry, 2018).

The target in data set [1] is BRD4 (Homo sapiens, UniProt O60885). In words: Surface plasmon resonance (SPR) direct binding to BRD4. To be noted: SPR format assay; Kd above the top concentration projected by extrapolation (extrapolated Rmax from control compound). As for the experimental part: Surface plasmon resonance (SPR) was used to assess the direct binding of the fragments and provide Kd values for binding to both ATAD2 and BRD4. SPR can yield artefactual data where the concentration of a small-molecular analyte exceeds ∼250 μM, and accordingly, this was the highest concentration used in the assays. Where the Kd exceeded this limit, projected Kds were determined by extrapolation, using the observed response units for compound binding (RU) relative to the molecular weight of a known control compound.[23]
(§1) 12.5 μM using an Echo 550 (Labcyte). Each well was backfilled to a final volume of 200 nl (for the […]), resulting in final DMSO concentrations of 2 %. 5 μl of GST-ATAD2 was added to each well and incubated for 30mins resulting in a final concentration of 5 nM.
(§2) 5μl of biotinylated-histone H4 peptide (SGRG-K(Ac)-GG-K(Ac)-GLG-K(Ac)-GGA-K(Ac)- RHRKVGG-K(Biotin)) was then added to each well at a final concentration of 500nM. Both GST-ATAD2 and peptide were diluted in buffer B (50 mM Tris pH 7.5, […], 1 mM DTT, 100 μg/ml bovine serum albumin (BSA)). The plate was then incubated at room temperature for 30mins and then 5 μl LanthaScreen® Tb-anti-GST Antibody (Life Technologies) at final concentration of 5 nM was added to each well and incubated for an additional 30mins. 5 μl of streptavidin-XLL65 (Cisbio Assay) at a final concentration of […] was added to each assay well. Both dyes were diluted in buffer C (50 mM Tris pH 7.5, […], 100 μg/ml BSA). The plate was incubated at room temperature for a further 30mins and then read using a PheraStar FS (BMG Labtech). The data were analysed using Graphpad […]
(§3) 1.4 Surface Plasmon Resonance (SPR).
(§4) SPR-based ligand binding assays were performed using Biacore S200 (GE Healthcare) at 25 °C using single cycle affinity.
(§5) ATAD2N1064A was achieved using standard amine coupling on a CM5 chip surface. The surface was prepared through activation with EDC/NHS, followed by injection of 10 µg/ml of respective proteins until target level 8000 RU was reached. The surface was then quenched using 1 M Ethanolamine and washed with running buffer 10 mM HEPES, 150mM NaCl, 0.01% TWEEN20, 0.5 mM TCEP and 1% DMSO with a flow rate of […]. Compounds were injected in a dose-response manner (8 concentration points ranging from 0-200 µM) in series across the control, ATAD2, BRD4, and ATAD2-N1064A flow cells using solvent correction to account for bulk refractive index changes. The reference control channel was subtracted […]
(§6) from immobilised channels and dose-response data was fitted using a steady state constant Rmax 1:1 binding model, using an extrapolated Rmax determined from a binding control compound in those cases where the extrapolated Kd value was greater than the top concentration used in the experiment (200 µM). K d values are reported to the nearest 100th of micromolar. 1 […]
(§7) Crystallisation was performed at 20 °C using the hanging drop vapor diffusion method.
(§8) Crystals of ATAD2 were grown by mixing 2µl ATAD2 at 7mg/ml and 2µl precipitant containing 0.1 M BIS-TRIS pH 6.5 and 2.0 M ammonium sulfate. Crystals were harvested in a diffusion solution containing 10 mM compound, 5% DMSO, 25 mM HEPES pH 7.5, 75 mM NaCl, 50 mM BIS-TRIS pH 6.5 and 1.0 M Ammonium Sulfate for 48hrs. Prior to data collection the crystals were cryo protected with the addition of 25% (v/v) ethylene glycol to the diffusion solution. X-ray diffraction data were recorded at Diamond Light Source (Harwell, Oxfordshire, UK). Data processing was carried out using XDS, POINTLESS/AIMLESS2 and other programs of the CCP4i suite3 run through the CCP4i2 gui. Structures were solved by molecular replacement using PHASER4 and pdb 3DAI as a starting model. REFMAC5 was employed for refinement, and model building was performed using COOT6. PDBs were deposited within the protein database www.pdb.org using accession codes: 11 XXXX, 15a […]

Data set [2] has as its target T1, ATAD2 bromodomain (Homo sapiens, UniProt Q6PL18).
T1 construct: 981-1108; GST (N); made in house; host or cells: Escherichia coli BL21 (DE3) pLysS, plasmid pGEX-6P-1
T1 sequence (Q6PL18 981-1108): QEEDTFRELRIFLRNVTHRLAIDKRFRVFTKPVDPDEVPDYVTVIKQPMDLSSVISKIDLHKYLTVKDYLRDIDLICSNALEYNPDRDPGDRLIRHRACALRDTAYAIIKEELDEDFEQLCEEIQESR
In words: Surface plasmon resonance (SPR) direct binding to ATAD2. The settings on record: SPR format assay; Kd above the top concentration projected by extrapolation (extrapolated Rmax from control compound). On the procedure: (§9) Surface plasmon resonance (SPR) was used to assess the direct binding of the fragments and provide Kd values for binding to both ATAD2 and BRD4. SPR can yield artefactual data where the concentration of a small-molecular analyte exceeds ∼250 μM, and accordingly, this was the highest concentration used in the assays.
as §1, §2, §3, §4, §5, §6, §7, §8

In data set [3] the target is T2, GST-ATAD2 bromodomain / biotinylated acetylated histone H4 peptide (Homo sapiens, UniProt Q6PL18).
T2 construct: 981-1108; made in house; host or cells: Escherichia coli BL21 (DE3) pLysS, plasmid pGEX-6P-1
T2 sequence (Q6PL18 981-1108): T1 sequence (Q6PL18 981-1108)
As to the kind of experiment: ATAD2-histone displacement HTRF assay. Type of data set: binding. To be noted: for IC50: HTRF format assay, highest concentration 1000 μM; for ATAD2 LE: Ligand efficiency (LE) = 1.4(–log IC50)/N, N = number of non-hydrogen atoms, from HTRF IC50; for ATAD2 inhibition in HTRF, in words: highest concentration assayed 1000 μM. On the procedure: as §9
1.1 Protein Purification.
The ATAD2 bromodomain 981-1108 was expressed with an N-terminal GST fusion from the pGEX-6P-1 plasmid. The plasmids were transformed into BL21 (DE3) pLysS Escherichia coli (Novagen) and then the cells grown in luria bertani (LB) media at 37 °C until an OD600 of 0.6 was reached. The temperature was reduced to 20 °C and expression induced using 0.2 mM Isopropyl β-D-1-thiogalactopyranoside (IPTG). The cells were harvested after overnight incubation and resuspended in buffer A (20 mM HEPES pH 7.4, 100 mM NaCl, 5 mM Dithiothreitol (DTT)). The cells were lysed by sonication and the lysate cleared by centrifugation (50,000 x g, 4 °C, 1 hr). The protein was passed over 5ml of glutathione Sepharose 4B resin (GE Healthcare) at 4 °C. The resin was then washed with buffer A and the protein eluted with buffer A supplemented with 10 mM glutathione. The protein was then applied to a Superdex 200 26/60 gel filtration column (GE Healthcare) equilibrated in buffer […]
1.2 Isothermal Titration Calorimetry.
ATAD2 was exchanged into ITC buffer (50 mM HEPES pH7.4, 200 mM NaCl, 1 mM DTT).
ITC measurements were carried out at 25°C on a Microcal ITC 200 (Malvern Instruments Ltd, Malvern, UK). Compound 11 at 40mM, 2% DMSO was titrated into ATAD2 prepared in the cell at 150 μM, 2% DMSO. Titrations began with an initial 0.5 μL injection followed by 19x 2 μL injections of compound, with 120s spacing between each injection, and stirred at 1000 rpm throughout the experiment. Data were then analysed using Origin 7.0 (OriginLab Corp., Burlington, NC, USA) and fit with the one-set-of-sites model.
1.3 ATAD2-Histone displacement HTRF assay.
Compounds (dissolved to 100 mM in DMSO) were dispensed into black 384 well assay plates […]
as §1, §2, §3, §4
ATAD2N1064A was achieved using standard amine coupling on a CM5 chip surface. The surface was prepared through activation with EDC/NHS, followed by injection of 10 µg/ml of respective proteins until target level 8000 RU was reached. The surface was then quenched using 1 M Ethanolamine and washed with running buffer 10 mM HEPES, 150mM NaCl, 0.01% TWEEN20, 0.5 mM TCEP and 1% DMSO with a flow rate of […]. Compounds were injected in a dose-response manner (8 concentration points ranging from 0-200 µM) in series across the control, ATAD2, BRD4, and ATAD2-N1064A flow cells using solvent correction to account for bulk refractive index changes. The reference control channel was subtracted
On the technique in general: In TR-FRET formats the signal depends on donor and acceptor labels being close together.

Each structure is given as a SMILES string.

`CN1C(=O)C(C)(C)c2cc(=O)n(Cc3ccc(Cl)cc3)cc21` [Compound 17j]: the Kd in data set [1] was 40 µM; in data set [2], 200 µM. In addition, in data set [3], the IC50 stood at 190 ± 63 µM. Further, the “ATAD2 LE” value in data set [3] was 0.24.

Turning to `CN1C(=O)C(C)(C)c2cc(=O)n(Cc3ccc(S(C)(=O)=O)cc3)cc21` [Compound 17i], the Kd in data set [1] was 200 µM. The equilibrium dissociation constant (Kd) in data set [2] was greater than 200 µM. For the same molecule, in data set [3], the IC50 amounted to 359 ± 37 µM and the “ATAD2 LE” value was 0.19.

Turning to `CN1C(=O)C(C)(C)c2cc(=O)n(Cc3ccc(C(N)=O)cc3)cc21` [Compound 17h], the Kd in data set [1] is greater than 200 µM. The Kd in data set [2] was greater than 200 µM. In data set [3], the IC50 stood at 680 ± 66 µM and the “ATAD2 LE” value was 0.18.

With `CCC1(CC)C(=O)N(C)c2cn(Cc3ccc(Cl)cc3)c(=O)cc21` [Compound 18a], the Kd in data set [1] was greater than 200 µM. In addition, in data set [2], the Kd was 107 µM. Moreover, in data set [3], the IC50 came to 163 ± 23 µM and the “ATAD2 LE” value was 0.22.

In the case of `Cn1cc2c(cc1=O)C(C)(C)C(=O)N2CCN1CCOCC1` [Compound 14e], the Kd in data set [1] and in data set [2] was greater than 2000 µM in each case. The same molecule yielded a half-inhibitory concentration (IC50) in data set [3] greater than 1000 µM.

In the case of `CN1C(=O)C(C)(C)c2cc(=O)n(Cc3ccc(C(=O)O)cc3)cc21` [Compound 17f], the Kd in data set [1] was greater than 200 µM. For the same molecule, the Kd in data set [2] is greater than 200 µM. In data set [3], the IC50 was determined as 533 ± 40 µM and the “ATAD2 LE” value is 0.19.

`Cn1cc2c(cc1=O)C(C)(C)C(=O)N2CCN1CCCC1` [Compound 14d]: the figures for the Kd in data set [1] and in data set [2] were greater than 200 µM and greater than 2000 µM, respectively. The molecule further yielded an IC50 in data set [3] greater than 1000 µM.

On to `Cn1cc2c(cc1=O)C(C)(C)C(=O)N2CCc1ccccc1` [Compound 14c], for which the Kd in data set [1] was greater than 200 µM. The Kd in data set [2] was greater than 200 µM. In addition, in data set [3], the IC50 was 868 ± 33 µM; the “ATAD2 inhibition in HTRF, in words” value is reported as “sub-millimolar HTRF IC50 values”; the “ATAD2 LE” value was found to be 0.19.

As to `Cn1cc2c(cc1=O)C(C)(C)C(=O)N2Cc1ccccc1` [Compound 14b], the Kd in data set [1] was greater than 200 µM. Further, in data set [2], the Kd was greater than 2000 µM. Also, in data set [3], the IC50 is 810 ± 57 µM; the “ATAD2 inhibition in HTRF, in words” value is “sub-millimolar HTRF IC50 values”; the “ATAD2 LE” value is recorded as 0.21.

As for `CN1C(=O)C(C)(C)c2cc(=O)n(Cc3cccc(C#N)c3)cc21` [Compound 17p], the figures for the Kd in data set [1] and in data set [2] were 184 µM and greater than 200 µM, respectively. Besides, in data set [3], the IC50 amounted to 668 ± 28 µM. In addition, the “ATAD2 LE” value in data set [3] was found to be 0.19.

As to `CN1C(=O)C(C)(C)c2cc(=O)n(Cc3ccc(Br)cc3)cc21` [Compound 17k], the dissociation constant (Kd) in data set [1] was 48 µM. Also, the Kd in data set [2] was 138 µM. Moreover, in data set [3], the IC50 was determined as 236 ± 36 µM and the “ATAD2 LE” value was 0.23.

As for `Cc1ccc(Cn2cc3c(cc2=O)C(C)(C)C(=O)N3C)cc1` [Compound 17l], the melting point is 180 to 182 °C. Besides, the dissociation constant Kd in data set [1] was 58 µM. Also, the Kd in data set [2] was greater than 200 µM. Moreover, in data set [3], the IC50 worked out at 274 ± 75 µM and the “ATAD2 LE” value came to 0.23.

Take `COC(=O)c1ccc(Cn2cc3c(cc2=O)C(C)(C)C(=O)N3C)cc1` [Compound 17e]: the Kd in data set [1] was 141 µM. Also, the Kd in data set [2] was greater than 200 µM. In addition, in data set [3], the concentration for half-maximal inhibition (IC50) amounted to 651 ± 1 µM and the “ATAD2 LE” value is 0.18.

`CCCn1cc2c(cc1=O)C(C)(C)C(=O)N2C` [Compound 17b]: the equilibrium dissociation constant (Kd) is greater than 200 µM in data set [1] and greater than 2000 µM in data set [2]. Also, in data set [3], the IC50 was greater than 1000 µM.

Take `CN1C(=O)C(C)(Cc2ccccc2)c2cc(=O)n(Cc3ccc(Cl)cc3)cc21` (stereo not drawn) [Compound 22a]: the Kd in data set [1] was greater than 2000 µM; in data set [2], greater than 200 µM. In addition, in data set [3], the IC50 is greater than 1000 µM.

On to `CN1C(=O)C(C)(CC2CC2)c2cc(=O)n(Cc3ccc(Cl)cc3)cc21` (stereo not drawn) [Compound 22f], for which, in data set [1], the Kd was greater than 200 µM. Further, the Kd in data set [2] was 113 µM. Moreover, in data set [3], the IC50 is 304 ± 83 µM and the “ATAD2 LE” value is given as 0.20.

As usually defined, the Kd is the concentration at which binding is half-saturated. Usually IC50 stands for the midpoint of a concentration-inhibition curve. Usually melting point stands for the temperature, or range, at which the solid turns liquid.
